Reference: US10660877B2 (BRISTOL-MYERS SQUIBB COMPANY, priority 2016, dated 2020)

How the values were obtained:
[1] = target: human TLR7 (Homo sapiens (Human), UniProt Q9NYK1); assay: TLR7 inhibition reporter assay (HEK-Blue cells, SEAP reporter, gardiquimod stimulation); format: cell-based; details: HEK-Blue cells overexpressing human TLR7, gardiquimod 7.5 μM
[2] = target: human TLR8 (Homo sapiens (Human), UniProt Q9NR97); assay: TLR8 inhibition reporter assay (HEK-Blue cells, SEAP reporter, R848 stimulation); details: read-out: TLR8 IC50, HEK-Blue cells overexpressing human TLR8, R848 15.9 μM;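 further: compounds tested from 0.05 nM to 50 µM, 22 h at 37 °C, SEAP measured with HEK-Blue Detection, inhibition relative to agonist plus DMSO versus a known inhibitor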
Sequence of human TLR8 (Q9NR97 27-1041): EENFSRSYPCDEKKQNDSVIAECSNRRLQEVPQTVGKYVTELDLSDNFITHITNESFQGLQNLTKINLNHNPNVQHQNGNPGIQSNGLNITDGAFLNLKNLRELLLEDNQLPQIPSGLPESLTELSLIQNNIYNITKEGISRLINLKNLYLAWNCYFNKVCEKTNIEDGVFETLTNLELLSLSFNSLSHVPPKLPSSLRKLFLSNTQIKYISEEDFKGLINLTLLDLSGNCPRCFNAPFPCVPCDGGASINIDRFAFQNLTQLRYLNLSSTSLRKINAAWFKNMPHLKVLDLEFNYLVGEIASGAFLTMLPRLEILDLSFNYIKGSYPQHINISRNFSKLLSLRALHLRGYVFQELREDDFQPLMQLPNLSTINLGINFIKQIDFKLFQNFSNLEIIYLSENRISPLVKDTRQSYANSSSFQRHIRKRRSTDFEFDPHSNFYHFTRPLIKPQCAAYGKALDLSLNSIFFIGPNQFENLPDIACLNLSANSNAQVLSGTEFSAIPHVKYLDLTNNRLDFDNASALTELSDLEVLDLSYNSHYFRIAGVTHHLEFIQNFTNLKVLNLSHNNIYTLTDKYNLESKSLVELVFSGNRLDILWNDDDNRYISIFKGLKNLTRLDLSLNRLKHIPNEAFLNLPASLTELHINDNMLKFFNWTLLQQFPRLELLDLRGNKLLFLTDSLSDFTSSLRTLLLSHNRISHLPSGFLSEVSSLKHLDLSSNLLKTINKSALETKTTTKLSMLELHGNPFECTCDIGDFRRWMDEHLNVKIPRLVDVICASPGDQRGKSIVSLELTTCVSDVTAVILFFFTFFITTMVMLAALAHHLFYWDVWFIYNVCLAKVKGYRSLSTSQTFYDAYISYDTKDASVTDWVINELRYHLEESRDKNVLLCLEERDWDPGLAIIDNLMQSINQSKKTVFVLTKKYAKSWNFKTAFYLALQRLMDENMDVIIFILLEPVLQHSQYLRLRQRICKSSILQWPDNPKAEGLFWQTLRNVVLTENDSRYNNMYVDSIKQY

[3] = target: human TLR9 (Homo sapiens (Human), UniProt Q9NR96); assay: TLR9 inhibition reporter assay (HEK-Blue cells, SEAP reporter, ODN2006 stimulation); details: read-out: TLR9 IC50, HEK-Blue cells overexpressing human TLR9, ODN2006 5 nM;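 further: compounds tested over 0.05 nM to 50 µM, 22 h incubation, inhibition taken as SEAP signal drop from agonist plus DMSO wells toward a known inhibitor control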
Sequence of human TLR9 (Q9NR96 26-1032): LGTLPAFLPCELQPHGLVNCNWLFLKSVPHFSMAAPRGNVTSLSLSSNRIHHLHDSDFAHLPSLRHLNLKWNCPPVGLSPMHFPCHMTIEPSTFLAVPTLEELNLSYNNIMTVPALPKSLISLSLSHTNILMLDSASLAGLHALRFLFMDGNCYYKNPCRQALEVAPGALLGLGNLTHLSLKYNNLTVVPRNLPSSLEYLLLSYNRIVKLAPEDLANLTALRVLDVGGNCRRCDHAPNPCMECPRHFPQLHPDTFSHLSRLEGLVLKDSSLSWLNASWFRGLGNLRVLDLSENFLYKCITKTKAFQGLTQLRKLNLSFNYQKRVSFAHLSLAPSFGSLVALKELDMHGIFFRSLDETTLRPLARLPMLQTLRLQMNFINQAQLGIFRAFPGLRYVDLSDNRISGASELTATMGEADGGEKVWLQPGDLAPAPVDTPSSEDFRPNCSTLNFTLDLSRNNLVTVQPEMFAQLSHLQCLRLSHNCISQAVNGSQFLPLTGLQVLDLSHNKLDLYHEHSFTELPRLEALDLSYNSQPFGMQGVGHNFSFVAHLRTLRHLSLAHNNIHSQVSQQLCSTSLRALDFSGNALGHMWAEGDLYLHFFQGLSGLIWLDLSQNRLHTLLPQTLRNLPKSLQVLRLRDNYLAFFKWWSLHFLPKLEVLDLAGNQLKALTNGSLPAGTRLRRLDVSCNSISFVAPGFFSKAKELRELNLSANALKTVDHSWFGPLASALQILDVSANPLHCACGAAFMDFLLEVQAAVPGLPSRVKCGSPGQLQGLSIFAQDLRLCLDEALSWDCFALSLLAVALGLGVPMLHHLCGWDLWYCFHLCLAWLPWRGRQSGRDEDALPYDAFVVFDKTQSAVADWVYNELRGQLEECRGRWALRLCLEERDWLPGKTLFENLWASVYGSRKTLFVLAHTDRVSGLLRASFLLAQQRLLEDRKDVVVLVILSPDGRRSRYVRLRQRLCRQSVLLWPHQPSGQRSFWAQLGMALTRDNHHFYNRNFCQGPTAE

Sequence of human TLR7 (Q9NYK1 27-1049): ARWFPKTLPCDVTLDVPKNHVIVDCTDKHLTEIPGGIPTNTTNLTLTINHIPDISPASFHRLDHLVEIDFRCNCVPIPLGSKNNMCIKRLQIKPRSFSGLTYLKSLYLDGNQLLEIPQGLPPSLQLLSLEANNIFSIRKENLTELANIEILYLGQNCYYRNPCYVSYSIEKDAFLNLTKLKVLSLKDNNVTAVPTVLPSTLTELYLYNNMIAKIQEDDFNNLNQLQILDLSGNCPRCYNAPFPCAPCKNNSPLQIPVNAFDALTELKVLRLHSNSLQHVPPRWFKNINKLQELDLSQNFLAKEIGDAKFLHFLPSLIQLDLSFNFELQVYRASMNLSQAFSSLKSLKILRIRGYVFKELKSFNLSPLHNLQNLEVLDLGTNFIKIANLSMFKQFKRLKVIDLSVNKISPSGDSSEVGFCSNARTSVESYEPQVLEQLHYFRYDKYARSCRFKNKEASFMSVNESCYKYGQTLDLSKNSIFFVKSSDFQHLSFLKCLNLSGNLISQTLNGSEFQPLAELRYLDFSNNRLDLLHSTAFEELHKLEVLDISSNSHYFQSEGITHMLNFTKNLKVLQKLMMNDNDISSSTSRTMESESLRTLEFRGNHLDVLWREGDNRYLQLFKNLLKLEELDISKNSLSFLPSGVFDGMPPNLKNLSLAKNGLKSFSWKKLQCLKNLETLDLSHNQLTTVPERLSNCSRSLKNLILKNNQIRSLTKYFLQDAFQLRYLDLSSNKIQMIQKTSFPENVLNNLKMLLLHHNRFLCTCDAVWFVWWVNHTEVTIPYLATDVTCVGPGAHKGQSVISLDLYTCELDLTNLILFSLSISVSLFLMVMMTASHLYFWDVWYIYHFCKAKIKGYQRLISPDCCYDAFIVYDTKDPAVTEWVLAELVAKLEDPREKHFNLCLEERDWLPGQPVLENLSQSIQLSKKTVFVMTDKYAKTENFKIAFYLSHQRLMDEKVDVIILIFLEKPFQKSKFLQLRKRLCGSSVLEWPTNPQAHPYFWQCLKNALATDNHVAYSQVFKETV

## CCc1c(-c2ccnc(C#N)c2)[nH]c2ccc(C3CCNCC3)cc12 [Example 64, 4-(3-ethyl-5-(piperidin-4-yl)-1H-indol-2-yl)picolinonitrile]
[1]
  IC50: 95.6 nM
[2]
  IC50: 61.8 nM
[3]
  IC50: 895 nM

## Cc1cc(-c2[nH]c3ccc(C4CCN(C(=O)CN(C)CCF)CC4)cc3c2C(C)C)cc(C)n1 [Example 421, 1-(4-(2-(2,6-dimethylpyridin-4-yl)-3-isopropyl-1H-indol-5-yl)piperidin-1-yl)-2-((2-fluoroethyl)(methyl)amino)ethan-1-one]
[1]
  IC50: 5.4 nM
[2]
  IC50: 25.9 nM
[3]
  IC50: 656 nM

## Cc1cc(-c2[nH]c3ccc(C4CCN(Cc5c[nH]nn5)CC4)cc3c2C(C)C)c(F)cn1 [Example 691]
[1]
  IC50: 7 nM
[2]
  IC50: 2.6 nM
[3]
  IC50: 2570 nM

## Cc1cc(-c2[nH]c3ccc(C4CCN(S(=O)(=O)CC(F)(F)F)CC4)cc3c2C(C)C)ccn1 [Example 546, 3-isopropyl-2-(2-methylpyridin-4-yl)-5-(1-((2,2,2-trifluoroethyl)sulfonyl)piperidin-4-yl)-1H-indole]
[1]
  IC50: 164 nM
[2]
  IC50: 820 nM
[3]
  IC50: > 50000 nM

## Cc1cc(-c2[nH]c3ccc(C4CCN(CC(=O)N(CCO)C(C)C)CC4)cc3c2C(C)C)cc(C)n1 [Example 299, 2-(4-(2-(2,6-dimethylpyridin-4-yl)-3-isopropyl-1H-indol-5-yl)piperidin-1-yl)-N-(2-hydroxyethyl)-N-isopropylacetamide]
[1]
  IC50: 24 nM
[2]
  IC50: 112 nM
[3]
  IC50: 2630 nM

## Cc1cc(-c2[nH]c3ccc(C4CCN(CC(=O)N(C)CC#N)CC4)cc3c2C(C)C)cc(C)n1 [Example 247, N-(cyanomethyl)-2-(4-(2-(2,6-dimethylpyridin-4-yl)-3-isopropyl-1H-indol-5-yl)piperidin-1-yl)-N-methylacetamide]
[1]
  IC50: 3 nM
[2]
  IC50: 4 nM
[3]
  IC50: 462 nM

## Cc1cc(-c2[nH]c3ccc(C4CCN(C(=O)CN(C)C(C)(C)C)CC4)cc3c2C(C)C)cc(C)n1 [Example 359, 2-(tert-butyl (methyl)amino)-1-(4-(2-(2,6-dimethylpyridin-4-yl)-3-isopropyl-1H-indol-5-yl)piperidin-1-yl)ethan-1-one]
[1]
  IC50: 7.1 nM
[2]
  IC50: 11.7 nM
[3]
  IC50: 826 nM

## Cc1cc(-c2[nH]c3ccc(C4CCNCC4)cc3c2C(C)C)cc(N2CCN(C)CC2)n1 [Example 480, 3-isopropyl-2-(2-methyl-6-(4-methylpiperazin-1-yl)pyridin-4-yl)-5-(piperidin-4-yl)-1H-indole]
[1]
  IC50: 2880 nM
[2]
  IC50: 7060 nM
[3]
  IC50: 707 nM

## Cc1cc(-c2[nH]c3ccc(C4CCN(C(=O)C5CC(=O)N(C)C5)CC4)cc3c2C(C)C)cc(C2CC2)n1 (stereo not drawn) [Example 507, 4-(4-(2-(2-cyclopropyl-6-methylpyridin-4-yl)-3-isopropyl-1H-indol-5-yl)piperidine-1-carbonyl)-1-methylpyrrolidin-2-one]
[1]
  IC50: 52 nM
[2]
  IC50: 346 nM
[3]
  IC50: 19000 nM

## Cc1cc(-c2[nH]c3ccc(C4CCN(C(=O)CN5CCCC(O)C5)CC4)cc3c2C(C)C)cc(C)n1 (stereo not drawn) [Example 383, 1-(4-(2-(2,6-dimethylpyridin-4-yl)-3-isopropyl-1H-indol-5-yl)piperidin-1-yl)-2-(3-hydroxypiperidin-1-yl)ethan-1-one]
[1]
  IC50: 1.7 nM
[2]
  IC50: 11.1 nM
[3]
  IC50: 572 nM

## Cc1cc(-c2[nH]c3ccc(C4CCN(CC(=O)NCC(C)C)CC4)cc3c2C(C)C)cc(C)n1 [Example 221, 2-(4-(2-(2,6-dimethylpyridin-4-yl)-3-isopropyl-1H-indol-5-yl)piperidin-1-yl)-N-isobutylacetamide]
[1]
  IC50: 6.8 nM
[2]
  IC50: 17.2 nM
[3]
  IC50: 2010 nM

## CC(=O)NCC(=O)N1CCC(c2ccc3[nH]c(-c4cc(C)nc(C)c4)c(C(C)C)c3c2)CC1 [Example 166, N-(2-(4-(2-(2,6-dimethylpyridin-4-yl)-3-isopropyl-1H-indol-5-yl)piperidin-1-yl)-2-oxoethyl)acetamide]
[1]
  IC50: 0.5 nM
[2]
  IC50: 79.8 nM
[3]
  IC50: > 50000 nM

## Cc1cc(-c2[nH]c3ccc(C4CCN(C(=O)CN5C(=O)CN(C)C5=O)CC4)cc3c2C(C)C)cc(C)n1 [Example 160, 3-(2-(4-(2-(2,6-dimethylpyridin-4-yl)-3-isopropyl-1H-indol-5-yl)piperidin-1-yl)-2-oxoethyl)-1-methylimidazolidine-2,4-dione]
[1]
  IC50: 7.1 nM
[2]
  IC50: 35.8 nM
[3]
  IC50: > 50000 nM

## Cc1cc(-c2[nH]c3ccc(C4CCN(C(=O)C5CC5(F)F)CC4)cc3c2C(C)C)cc(C)n1 (stereo not drawn) [Example 108, (2,2-difluorocyclopropyl)(4-(2-(2,6-dimethylpyridin-4-yl)-3-isopropyl-1H-indol-5-yl)piperidin-1-yl)methanone]
[1]
  IC50: 7.4 nM
[2]
  IC50: 103 nM
[3]
  IC50: 33100 nM

## Cc1cc(-c2[nH]c3ccc(C4CCN(C(=O)C5CC(=O)N(C)C5)CC4)cc3c2C(C)C)ccn1 (stereo not drawn) [Example 566, 4-(4-(3-isopropyl-2-(2-methylpyridin-4-yl)-1H-indol-5-yl)piperidine-1-carbonyl)-1-methylpyrrolidin-2-one]
[1]
  IC50: 78.8 nM
[2]
  IC50: 118 nM
[3]
  IC50: > 50000 nM

## Cc1cc(-c2[nH]c3ccc(C4CCN(C(=O)[C@@H](N)Cc5c[nH]cn5)CC4)cc3c2C(C)C)ccn1 [Example 574, (S)-2-amino-3-(1H-imidazol-4-yl)-1-(4-(3-isopropyl-2-(2-methylpyridin-4-yl)-1H-indol-5-yl)piperidin-1-yl)propan-1-one]
[1]
  IC50: 82.9 nM
[2]
  IC50: 15.6 nM
[3]
  IC50: 851 nM

## Cc1cc(-c2[nH]c3ccc(C4CCN(C(=O)CCO)CC4)cc3c2C(C)C)cc(C)n1 [Example 117, 1-(4-(2-(2,6-dimethylpyridin-4-yl)-3-isopropyl-1H-indol-5-yl)piperidin-1-yl)-3-hydroxypropan-1-one]
[1]
  IC50: 6.6 nM
[2]
  IC50: 116 nM
[3]
  IC50: > 50000 nM

## COc1cc(-c2[nH]c3ccc(C4CCN(C5CCOCC5)CC4)cc3c2C(C)C)ccn1 [Example 720, 3-isopropyl-2-(2-methoxypyridin-4-yl)-5-(1-(tetrahydro-2H-pyran-4-yl)piperidin-4-yl)-1H-indole]
[1]
  IC50: 51 nM
[2]
  IC50: 82.5 nM
[3]
  IC50: 2900 nM

## Cc1cc(-c2[nH]c3ccc(C4CCN(C(=O)C5CC(=O)N(C)C5)CC4)cc3c2CC(F)F)cc(C)n1 (stereo not drawn) [Example 534, 4-(4-(3-(2,2-difluoroethyl)-2-(2,6-dimethylpyridin-4-yl)-1H-indol-5-yl)piperidine-1-carbonyl)-1-methylpyrrolidin-2-one]
[1]
  IC50: 63.8 nM
[2]
  IC50: 660 nM
[3]
  IC50: 45400 nM

## CNC(=O)CN1CCC(c2ccc3[nH]c(-c4cc(C)ncc4C)c(C(C)C)c3c2)CC1 [Example 653, 2-(4-(2-(2,5-dimethylpyridin-4-yl)-3-isopropyl-1H-indol-5-yl)piperidin-1-yl)-N-methylacetamide]
[1]
  IC50: 13.9 nM
[2]
  IC50: 4.4 nM
[3]
  IC50: 4160 nM

## Cc1cc(-c2[nH]c3ccc(C4CCN(CC(=O)NC5(C)CCC5)CC4)cc3c2C(C)C)cc(C)n1 [Example 243, 2-(4-(2-(2,6-dimethylpyridin-4-yl)-3-isopropyl-1H-indol-5-yl)piperidin-1-yl)-N-(1-methylcyclobutyl)acetamide]
[1]
  IC50: 10 nM
[2]
  IC50: 20 nM
[3]
  IC50: 817 nM

## Cc1cc(-c2[nH]c3ccc(C4CCN(C(=O)CN5CCNC(=O)C5)CC4)cc3c2C(C)C)cc(C)n1 [Example 379, 4-(2-(4-(2-(2,6-dimethylpyridin-4-yl)-3-isopropyl-1H-indol-5-yl)piperidin-1-yl)-2-oxoethyl) piperazin-2-one]
[1]
  IC50: 7.7 nM
[2]
  IC50: 55.2 nM
[3]
  IC50: 3920 nM

## Cc1cc(-c2[nH]c3ccc(C4CCN(CC(=O)N(C)C5CCCCC5)CC4)cc3c2C(C)C)cc(C)n1 [Example 278, N-cyclohexyl-2-(4-(2-(2,6-dimethylpyridin-4-yl)-3-isopropyl-1H-indol-5-yl)piperidin-1-yl)-N-methylacetamide]
[1]
  IC50: 6.1 nM
[2]
  IC50: 28.5 nM
[3]
  IC50: 288 nM

## Cc1cc(-c2[nH]c3ccc(C4CCN(CC5CCCC5)CC4)cc3c2C(C)C)cc(C)n1 [Example 468, 5-(1-(cyclopentylmethyl)piperidin-4-yl)-2-(2,6-dimethylpyridin-4-yl)-3-isopropyl-1H-indole]
[1]
  IC50: 17.8 nM
[2]
  IC50: 35.5 nM
[3]
  IC50: 1340 nM

## CNC(=O)CN1CCC(c2ccc3[nH]c(-c4cc(C5CC5)ncc4F)c(C(C)C)c3c2)CC1 [Example 514, 2-(4-(2-(2-cyclopropyl-5-fluoropyridin-4-yl)-3-isopropyl-1H-indol-5-yl)piperidin-1-yl)-N-methylacetamide]
[1]
  IC50: 60.3 nM
[2]
  IC50: 269 nM
[3]
  IC50: 10900 nM

## Cc1cc(-c2[nH]c3ccc(C4CCN(C(=O)C(F)(F)F)CC4)cc3c2C(C)C)ccn1 [Example 614, 2,2,2-trifluoro-1-(4-(3-isopropyl-2-(2-methylpyridin-4-yl)-1H-indol-5-yl)piperidin-1-yl)ethan-1-one]
[1]
  IC50: 119 nM
[2]
  IC50: 469 nM
[3]
  IC50: 17500 nM

## Cc1cc(-c2[nH]c3ccc(C4CCN(CC(=O)NCCC(C)O)CC4)cc3c2C(C)C)cc(C)n1 (stereo not drawn) [Example 262, 2-(4-(2-(2,6-dimethylpyridin-4-yl)-3-isopropyl-1H-indol-5-yl)piperidin-1-yl)-N-(3-hydroxybutyl)acetamide]
[1]
  IC50: 2 nM
[2]
  IC50: 6 nM
[3]
  IC50: 715 nM

## Cc1cc(-c2[nH]c3ccc(C4CCN(C(=O)CC5CC(=O)NC(=O)N5)CC4)cc3c2C(C)C)cc(C)n1 (stereo not drawn) [Example 129, 6-(2-(4-(2-(2,6-dimethylpyridin-4-yl)-3-isopropyl-1H-indol-5-yl)piperidin-1-yl)-2-oxoethyl)dihydropyrimidine-2,4(1H,3H)-dione]
[1]
  IC50: 18.1 nM
[2]
  IC50: 69.8 nM
[3]
  IC50: 32300 nM
